Entries after “also recorded” stand apart in the source; their conditions may differ. Read-outs that look alike come from different tables or passages of the source. Numbered stars: 1 amine (or outer) side, 2 acyl side, 3 side chain; on linkers, the order of the positions; unused ones are H or OH. Bridge positions count the residues as written; N and C are the ends. Side chains are listed from the residue outwards. Peptide text beside a SMILES is read from it. * marks the point of attachment. X1 = C/C(=N\O)C(C)(C)NCCC(CCNC(C)(C)/C(C)=N/O)CCN*; Glutaryl = O=C(CCCC(=O)[*:2])[*:1]; X2 = NC(=O)COCC(=O)NCCOCCOCCOCCN*
Legend:
[1] = Biodistribution in sham-operated rats with and without excess cold compound; type: in vivo; conditions: male, Sprague Dawley, rat, iv, total radioactivity, 15 days post-op, 1 hour post-injection; for dose excreted at 1 h: bile and urine
Protocol: (§1) On the appropriate day post surgery BDL and sham animals were removed and put under isoflurane anaesthesia, then each animal was injected with 0.3 ml intravenously (i.v.) via tail vein (˜3MBq). At the appropriate time point post-injection of the test item, each animal was re-anaesthetised with isoflurane, sacrificed by cervical dislocation weighed and the weight recorded via a barcode scanning system. Each animal was dissected and the following organs and tissues were removed and counted using BASIL counter protocol 40 or manual counting:
The recorded activity in a whole organ (e.g., liver) was corrected for background radioactivity and for radioactive decay and the biodistribution of radioactivity calculated by reference to Formula I:
[formula] where: • A=counts per second measured in organ • B=total counts per second measured in all samples (excluding the injection site)
The percentage of injected radioactivity in the weighed tissue samples (e.g., blood) was calculated to give % i.d. in the entire tissue by reference to Formula 2:
[formula] where: • Zs=counts per second in sample • Ws=weight of sample in grams • Wb=weight of animal in grams immediately after sacrifice • B=total counts per second measured in all the samples (excluding the injection site) • F=tissue specific factor representing the mass of the tissue as a proportion of the total body weight of the animal
The biodistribution of radioactivity was investigated in 15 days post-operatively in BDL and sham-operated male Sprague Dawley rats (procedures described in Example 3) 1 hour following of intravenous injection via tail vein of ˜3 MBq of Compound 8, both before and after addition of 1:100 and 1:10,000 fold excess of cold Compound 8. At the appropriate time point post-injection of the test Item, each animal was re-anaesthetised with isoflurane, sacrificed by cervical dislocation and weighed. Each animal was dissected and organs and tissues (see Tables 5 and 6 below) were removed and counted using BASIL counter protocol 40 or manual counting.

[2] = test system: fibrogenic livers in BDL model; test: Liver uptake in BDL vs sham rats at 15 days post-op, vs negative control; type: in vivo, rat; conditions: one hour post-injection
Protocol: as §1
The BDL and sham animal models were set up as described in Example 3. At 15 days post-operatively, one of Compound 3, Compound 8 or a negative control was administered to each animal and liver uptake assessed as described in Example 3.

[3] = test system: fibrogenic livers in rat BDL model; test: Liver uptake (SUV) in BDL vs sham rats at 2-28 days post-operatively; type: in vivo; conditions: 1 hour after tail vein injection
Protocol: Outbred male Sprague Dawley rats (180-200 g; Charles River) were used in all bile duct ligation (BDL) and sham studies. […] For the BDL animals, the abdomen was shaved and swabbed with betadine solution followed by 5 mg/kg carprofen subcutaneously (s.c.) and 5 mg/kg bupronorphine s.c. and under Isoflurane anaesthesia a mid-line laparotomy was performed and the common bile duct located. Bile duct was double ligated, the first ligation made between the junction of the hepatic ducts and the second above the entrance of the pancreatic ducts. […] Animals were closely monitored for the duration of the experiment. […] At the appropriate time point post-injection of the test item, each animal was re-anaesthetised with isoflurane, sacrificed by cervical dislocation weighed and the weight recorded via a barcode scanning system. Each animal was dissected and the following organs and tissues were removed and counted using BASIL counter protocol 40 or manual counting: The BDL and sham animal models were set up as described in Example 3. Uptake of Compound 8 was calculated as Standard Uptake Value (SUV) as follows: [formula] • Zs=counts per second in sample • Ws=weight of sample in grams • Z1=total counts per second measured in all the samples (excluding the injection site) • W1=weight of animal in grams […]

dose excreted at 1 h ([1]; +10K-fold excess cold Compound 8): 46.5% | dose excreted at 1 h ([1]; +100-fold excess cold Compound 8): 43.2% | dose excreted at 1 h ([1]; no excess): 44.6% | tissue uptake dose at 1 h ([1]; blood, +10K-fold excess cold Compound 8, read-out: Activity in Blood, Mean): 1.4 %ID | tissue uptake dose at 1 h ([1]; blood, +100-fold excess cold Compound 8, read-out: Activity in Blood, Mean): 1.37 %ID | tissue uptake dose at 1 h ([1]; blood, no excess, read-out: Activity in Blood, Mean): 1.55 %ID | tissue uptake dose at 1 h ([1]; bone, 3 MBq, +10K-fold excess cold Compound 8, read-out: Activity in Bone, Mean): 2.42 %ID | tissue uptake dose at 1 h ([1]; bone, 3 MBq, +100-fold excess cold Compound 8, read-out: Activity in Bone, Mean): 3.06 %ID | tissue uptake dose at 1 h ([1]; bone, 3 MBq, no excess, read-out: Activity in Bone, Mean): 3.1 %ID | tissue uptake dose at 1 h ([1]; carcass, 3 MBq, +10K-fold excess cold Compound 8, read-out: Activity in Carcass, Mean): 11.6 %ID | tissue uptake dose at 1 h ([1]; carcass, 3 MBq, +100-fold excess cold Compound 8, read-out: Activity in Carcass, Mean): 9.32 %ID | tissue uptake dose at 1 h ([1]; carcass, 3 MBq, no excess, read-out: Activity in Carcass, Mean): 8.45 %ID | tissue uptake dose at 1 h ([1]; heart, 3 MBq, +10K-fold excess cold Compound 8, read-out: Activity in Heart, Mean): 0.1 %ID | tissue uptake dose at 1 h ([1]; heart, 3 MBq, +100-fold excess cold Compound 8, read-out: Activity in Heart, Mean): 0.1 %ID | tissue uptake dose at 1 h ([1]; heart, 3 MBq, no excess, read-out: Activity in Heart, Mean): 0.12 %ID | tissue uptake dose at 1 h ([1]; injection site, 3 MBq, +10K-fold excess cold Compound 8, read-out: Activity in Injection Site, Mean): 1.71 %ID | tissue uptake dose at 1 h ([1]; injection site, 3 MBq, +100-fold excess cold Compound 8, read-out: Activity in Injection Site, Mean): 1.44 %ID | tissue uptake dose at 1 h ([1]; injection site, 3 MBq, no excess, read-out: Activity in Injection Site, Mean): 1.66 %ID | tissue uptake dose at 1 h ([1]; kidneys, +10K-fold excess cold Compound 8, read-out: Activity in Kidneys, Mean): 3.65 %ID | tissue uptake dose at 1 h ([1]; kidneys, +100-fold excess cold Compound 8, read-out: Activity in Kidneys, Mean): 4.13 %ID | tissue uptake dose at 1 h ([1]; kidneys, no excess, read-out: Activity in Kidneys, Mean): 4.07 %ID | tissue uptake dose at 1 h ([1]; liver, 3 MBq, +10K-fold excess cold Compound 8, read-out: Activity in Liver, Mean): 3.03 %ID | tissue uptake dose at 1 h ([1]; liver, 3 MBq, +100-fold excess cold Compound 8, read-out: Activity in Liver, Mean): 3.52 %ID | tissue uptake dose at 1 h ([1]; liver, 3 MBq, no excess, read-out: Activity in Liver, Mean): 3.71 %ID | tissue uptake dose at 1 h ([1]; lung, 3 MBq, +10K-fold excess cold Compound 8, read-out: Activity in Lung, Mean): 0.39 %ID | tissue uptake dose at 1 h ([1]; lung, 3 MBq, +100-fold excess cold Compound 8, read-out: Activity in Lung, Mean): 0.38 %ID | tissue uptake dose at 1 h ([1]; lung, 3 MBq, no excess, read-out: Activity in Lung, Mean): 0.46 %ID | tissue uptake dose at 1 h ([1]; muscle, 3 MBq, +100-fold excess cold Compound 8, read-out: Activity in Muscle, Mean): 10.9 %ID | tissue uptake dose at 1 h ([1]; muscle, 3 MBq, no excess, read-out: Activity in Muscle, Mean): 10.4 %ID | tissue uptake dose at 1 h ([1]; muscle, +10K-fold excess cold Compound 8, read-out: Activity in Muscle, Mean): 8.41 %ID | tissue uptake dose at 1 h ([1]; skin, 3 MBq, +10K-fold excess cold Compound 8, read-out: Activity in Skin, Mean): 12.7 %ID | tissue uptake dose at 1 h ([1]; skin, 3 MBq, +100-fold excess cold Compound 8, read-out: Activity in Skin, Mean): 14 %ID | tissue uptake dose at 1 h ([1]; skin, 3 MBq, no excess, read-out: Activity in Skin, Mean): 14.4 %ID | tissue uptake dose at 1 h ([1]; small and large intestine, 3 MBq, +10K-fold excess cold Compound 8, read-out: Activity in Small & Large Intestine, Mean): 7.54 %ID | tissue uptake dose at 1 h ([1]; small and large intestine, 3 MBq, +100-fold excess cold Compound 8, read-out: Activity in Small & Large Intestine, Mean): 8.42 %ID | tissue uptake dose at 1 h ([1]; small and large intestine, 3 MBq, no excess, read-out: Activity in Small & Large Intestine, Mean): 7.86 %ID | tissue uptake dose at 1 h ([1]; spleen, 3 MBq, +10K-fold excess cold Compound 8, read-out: Activity in Spleen, Mean): 0.27 %ID | tissue uptake dose at 1 h ([1]; spleen, 3 MBq, +100-fold excess cold Compound 8, read-out: Activity in Spleen, Mean): 0.29 %ID | tissue uptake dose at 1 h ([1]; spleen, 3 MBq, no excess, read-out: Activity in Spleen, Mean): 0.29 %ID | tissue uptake dose at 1 h ([1]; stomach, 3 MBq, +10K-fold excess cold Compound 8, read-out: Activity in Stomach, Mean): 1.92 %ID | tissue uptake dose at 1 h ([1]; stomach, 3 MBq, +100-fold excess cold Compound 8, read-out: Activity in Stomach, Mean): 1.21 %ID | tissue uptake dose at 1 h ([1]; stomach, 3 MBq, no excess, read-out: Activity in Stomach, Mean): 0.9 %ID | tissue uptake dose at 1 h ([1]; thyroid, 3 MBq, +10K-fold excess cold Compound 8, read-out: Activity in Thyroid, Mean): 0.04 %ID | tissue uptake dose at 1 h ([1]; thyroid, 3 MBq, +100-fold excess cold Compound 8, read-out: Activity in Thyroid, Mean): 0.05 %ID | tissue uptake dose at 1 h ([1]; thyroid, 3 MBq, no excess, read-out: Activity in Thyroid, Mean): 0.05 %ID
SMILES: C/C(=N\O)C(C)(C)NCCC(CCNC(=O)CCCC(=O)NCCCC[C@@H]1NC(=O)CSC[C@@H](C(=O)NCCOCCOCCOCCNC(=O)COCC(N)=O)NC(=O)[C@H](Cc2ccccc2)NC(=O)[C@@H]2CSSC[C@H](NC1=O)C(=O)N[C@@H](CCCNC(=N)N)C(=O)NCC(=O)N[C@@H](CC(=O)O)C(=O)N2)CCNC(C)(C)/C(C)=N/O (some centres unmarked) [Compound 8] ({CH2CO}-K([Glutaryl-X1])CRGDCFC-X2; disulfide 2-6; thioether N-8)
Liver retention/uptake in BDL compared to sham animals (in words) [2]: significantly higher liver uptake; also recorded: significantly retained | Liver uptake in BDL rats (in words) [3]: specific uptake

From patent publication US8834843B2, “Imaging method” (GE Healthcare Limited, priority 2007, dated 2014)
